Assay results as given in patent US20090117083A1, “IMMUNOMODULATORY ALKALOIDS” (M N L PHARMA LIMITED, priority 2004, published 2009).

What was measured:
B16-F10 tumour cells = experiment: Control of lung metastasis in mice (B16-F10); assay type: in vivo, C57/bl6 mice; settings: 50 mg/kg s/c on days 2 and 4; lungs on day 14
Protocol: Mice (C57/bl6 under i/p ketamine anaesthesia) were challenged i/v (tail vein) with 5×10^4 B16-F10 tumour cells in a final volume of 100 μl per mouse on day 0. Test compounds (50 mg/kg in 200 μl sterile non-pyrogenic saline) were administered sic (right flank) on days 2 and 4. On day 14 the mice were sacrifices and the lungs dissected and stained in Indian ink solution (150 ml bidistilled water, 30 ml India Ink, 4 drops NH4OH) for 10 minutes then fixed for at least 24 hr in Fakete's solution (90 ml 37% formaldehyde, 900 ml 70% EtOH and 45 ml glacial acetic acid). The metastases in the stained and fixed lungs could then be visualized, counted and photographed.

α-D-glucosidase [1] = target: T1, α-D-glucosidase (Saccharomyces cerevisiae, UniProt P53341); experiment: Glycosidase inhibition (p-nitrophenyl substrate): α-D-glucosidase, yeast; assay type: biochemical, Saccharomyces cerevisiae (Baker's yeast)
T1 construct: purchased Sigma
T1 sequence (P53341 whole entry): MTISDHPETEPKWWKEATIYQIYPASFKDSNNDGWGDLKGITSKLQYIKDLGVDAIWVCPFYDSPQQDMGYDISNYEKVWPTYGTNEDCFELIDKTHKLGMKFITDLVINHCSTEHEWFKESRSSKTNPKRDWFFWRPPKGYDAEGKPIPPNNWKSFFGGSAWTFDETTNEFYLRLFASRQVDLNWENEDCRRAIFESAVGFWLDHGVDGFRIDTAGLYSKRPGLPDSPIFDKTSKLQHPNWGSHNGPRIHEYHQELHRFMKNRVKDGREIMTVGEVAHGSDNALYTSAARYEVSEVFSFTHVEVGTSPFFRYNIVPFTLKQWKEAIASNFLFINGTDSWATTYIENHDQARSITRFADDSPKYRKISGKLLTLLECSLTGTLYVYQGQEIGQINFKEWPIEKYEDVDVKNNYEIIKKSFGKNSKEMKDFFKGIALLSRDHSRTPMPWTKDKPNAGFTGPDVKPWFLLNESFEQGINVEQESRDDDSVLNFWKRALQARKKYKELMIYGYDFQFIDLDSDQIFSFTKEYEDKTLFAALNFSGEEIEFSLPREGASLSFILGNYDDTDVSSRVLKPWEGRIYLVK
Protocol: (§1) All enzymes were purchased from Sigma, as were the appropriate p-nitrophenyl substrates. Assays were carried out in microtitre plates. Enzymes were assayed in 0.1M citric acid/0.2M di-sodium hydrogen phosphate (McIlvaine) buffers at the optimum pH for the enzyme. All assays were carried out at 20° C. For screening assays the incubation assay consisted of 10 μl of enzyme solution, 10 μl of inhibitor solution (made up in water) and 50 μl of the appropriate 5 mM p-nitrophenyl substrate (3.57 mM final conc.) made up in McIlvaine buffer at the optimum pH for the enzyme.
(§2) The reactions were stopped with 0.4M glycine (pH 10.4) during the exponential phase of the reaction, which was determined at the beginning of the assay using blanks with water, which were incubated for a range of time periods to measure the reaction rate using 5 mM substrate solution. Endpoint absorbances were read at 405 nm with a Biorad microtitre plate reader (Benchmark). Water was substituted for the inhibitors in the blanks.

[2] = target: T2, rabbit small intestine sucrase (Oryctolagus cuniculus, UniProt P07768); experiment: Inhibition of rabbit small intestine sucrase; assay type: biochemical; settings: 700 μM
T2 construct: from tissue; host or cells: rabbit small intestine
T2 sequence (P07768 1008-1827 limits assumed): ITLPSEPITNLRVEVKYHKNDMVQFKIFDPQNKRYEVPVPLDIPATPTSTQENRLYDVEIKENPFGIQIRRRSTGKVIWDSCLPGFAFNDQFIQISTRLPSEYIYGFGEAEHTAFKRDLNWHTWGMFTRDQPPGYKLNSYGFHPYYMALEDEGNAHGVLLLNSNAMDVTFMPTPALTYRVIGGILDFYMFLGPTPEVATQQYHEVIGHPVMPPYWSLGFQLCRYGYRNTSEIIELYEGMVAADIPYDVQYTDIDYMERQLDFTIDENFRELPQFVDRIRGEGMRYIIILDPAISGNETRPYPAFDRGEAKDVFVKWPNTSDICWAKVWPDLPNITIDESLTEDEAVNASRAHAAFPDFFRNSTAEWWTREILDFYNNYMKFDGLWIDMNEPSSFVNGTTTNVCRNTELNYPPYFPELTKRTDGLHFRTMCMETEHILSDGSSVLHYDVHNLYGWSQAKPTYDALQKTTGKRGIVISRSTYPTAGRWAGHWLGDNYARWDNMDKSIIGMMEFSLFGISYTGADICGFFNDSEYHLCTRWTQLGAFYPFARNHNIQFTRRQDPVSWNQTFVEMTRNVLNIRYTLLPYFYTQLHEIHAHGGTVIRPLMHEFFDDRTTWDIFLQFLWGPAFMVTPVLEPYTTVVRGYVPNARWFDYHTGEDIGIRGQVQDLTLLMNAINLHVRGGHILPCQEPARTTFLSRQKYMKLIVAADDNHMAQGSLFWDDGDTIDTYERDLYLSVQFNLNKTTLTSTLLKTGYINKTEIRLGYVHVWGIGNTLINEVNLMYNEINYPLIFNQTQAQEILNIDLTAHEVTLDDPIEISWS
T2 sequence (P07768 2-1007 partner limits assumed): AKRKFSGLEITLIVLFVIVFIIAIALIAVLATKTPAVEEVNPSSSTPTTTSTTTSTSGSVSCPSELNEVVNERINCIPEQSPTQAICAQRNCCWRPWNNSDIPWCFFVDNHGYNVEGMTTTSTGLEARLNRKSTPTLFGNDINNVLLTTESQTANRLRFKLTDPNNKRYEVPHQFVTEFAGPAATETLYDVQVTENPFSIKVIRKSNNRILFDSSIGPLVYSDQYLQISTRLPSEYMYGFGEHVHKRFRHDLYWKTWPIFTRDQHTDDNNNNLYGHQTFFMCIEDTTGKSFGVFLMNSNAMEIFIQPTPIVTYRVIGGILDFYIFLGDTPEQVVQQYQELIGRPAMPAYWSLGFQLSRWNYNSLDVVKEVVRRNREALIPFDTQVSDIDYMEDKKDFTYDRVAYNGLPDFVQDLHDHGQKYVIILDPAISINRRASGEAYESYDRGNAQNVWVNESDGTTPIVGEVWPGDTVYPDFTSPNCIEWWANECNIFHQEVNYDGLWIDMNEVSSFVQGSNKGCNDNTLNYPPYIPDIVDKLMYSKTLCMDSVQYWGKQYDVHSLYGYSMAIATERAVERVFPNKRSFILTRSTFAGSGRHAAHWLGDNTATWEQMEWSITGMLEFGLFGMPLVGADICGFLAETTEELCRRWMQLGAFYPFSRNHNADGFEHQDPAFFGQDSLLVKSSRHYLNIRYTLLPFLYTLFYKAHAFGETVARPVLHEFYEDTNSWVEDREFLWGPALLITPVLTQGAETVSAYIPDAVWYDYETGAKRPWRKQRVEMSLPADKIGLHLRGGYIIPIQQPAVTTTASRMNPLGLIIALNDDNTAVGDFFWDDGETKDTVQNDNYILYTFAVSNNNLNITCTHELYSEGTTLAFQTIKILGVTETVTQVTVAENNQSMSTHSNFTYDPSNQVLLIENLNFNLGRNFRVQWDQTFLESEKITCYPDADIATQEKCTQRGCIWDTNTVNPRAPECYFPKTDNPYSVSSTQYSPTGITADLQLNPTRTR

β-D-glucosidase = experiment: Glycosidase inhibition: β-D-glucosidase, almond; assay type: biochemical, Almonds (Prunus sp.)
Procedure, shortened: (§3)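 Screening used 3.57 mM (final) p-nitrophenyl substrates in McIlvaine buffer at each enzyme's pH optimum, 20° C, with endpoint reading at 405 nm.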

α-D-galactosidase = target: T3, α-D-galactosidase (Coffea arabica, UniProt Q42656); experiment: Glycosidase inhibition: α-D-galactosidase; assay type: biochemical, Green coffee beans (Coffea sp.); settings: read-out: % inhibition, galactosidase
T3 construct: purchased Sigma
T3 sequence (Q42656 16-378): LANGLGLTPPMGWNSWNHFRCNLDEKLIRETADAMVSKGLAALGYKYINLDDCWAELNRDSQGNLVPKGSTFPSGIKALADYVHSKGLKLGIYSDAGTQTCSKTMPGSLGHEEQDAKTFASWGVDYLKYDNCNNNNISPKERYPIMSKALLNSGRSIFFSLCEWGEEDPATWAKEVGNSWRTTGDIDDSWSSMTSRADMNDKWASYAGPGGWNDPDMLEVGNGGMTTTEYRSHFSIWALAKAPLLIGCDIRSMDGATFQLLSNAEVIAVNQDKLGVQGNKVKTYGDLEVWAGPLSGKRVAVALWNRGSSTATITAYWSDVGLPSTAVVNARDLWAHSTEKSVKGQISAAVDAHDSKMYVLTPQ
Protocol: as §1, §2

α-D-glucosidase [3] = target: T4, α-D-glucosidase (Oryza sativa subsp. japonica, UniProt Q653V7); experiment: Glycosidase inhibition: α-D-glucosidase, rice; assay type: biochemical, rice (Oryza sativa); settings: 1 mg/ml; read-out: % inhibition, gluc (rice)
T4 construct: purchased Sigma
T4 sequence (Q653V7 34-885): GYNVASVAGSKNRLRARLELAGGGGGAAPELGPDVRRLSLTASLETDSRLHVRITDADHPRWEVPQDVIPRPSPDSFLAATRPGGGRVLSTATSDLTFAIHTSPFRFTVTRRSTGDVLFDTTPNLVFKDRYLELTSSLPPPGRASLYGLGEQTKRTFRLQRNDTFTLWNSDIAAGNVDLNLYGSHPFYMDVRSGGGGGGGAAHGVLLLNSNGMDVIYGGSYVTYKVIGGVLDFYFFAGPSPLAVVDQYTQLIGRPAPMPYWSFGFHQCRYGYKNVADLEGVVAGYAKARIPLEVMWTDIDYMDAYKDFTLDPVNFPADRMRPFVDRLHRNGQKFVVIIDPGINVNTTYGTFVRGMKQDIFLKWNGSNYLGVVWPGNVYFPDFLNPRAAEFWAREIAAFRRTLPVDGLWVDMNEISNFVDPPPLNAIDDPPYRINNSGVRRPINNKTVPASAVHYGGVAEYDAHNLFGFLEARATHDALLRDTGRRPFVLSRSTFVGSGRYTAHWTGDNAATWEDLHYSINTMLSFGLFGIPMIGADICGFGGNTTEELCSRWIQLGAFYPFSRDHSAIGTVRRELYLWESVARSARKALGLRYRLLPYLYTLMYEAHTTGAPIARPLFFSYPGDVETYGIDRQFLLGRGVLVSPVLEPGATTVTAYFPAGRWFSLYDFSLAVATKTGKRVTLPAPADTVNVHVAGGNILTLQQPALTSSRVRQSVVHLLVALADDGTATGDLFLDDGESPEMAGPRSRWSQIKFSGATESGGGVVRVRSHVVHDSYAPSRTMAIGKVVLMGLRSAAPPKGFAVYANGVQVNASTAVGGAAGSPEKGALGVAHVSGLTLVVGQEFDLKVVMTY
Procedure, shortened: as §3

B16G/F10 melanoma cells = experiment: B16/F10 melanoma lung colonies in mice; assay type: in vivo, C57BL/6 mice; settings: for Colony Count: Day 21, mean ± s.e.m.; for % Reduction: versus vehicle
Protocol: There were 5 treatment groups in the study, with 6 mice arbitrarily allocated to each group. The treatment groups were as follows:
The dose volume was the daily intake for all animals. Test substances were administered to mice in Groups 2, 3, 4 and 5, as solutions in sterile water for 41 h 32 min prior to tumour cell injection (Day 0 is the day of tumour cell injection).
Mice were injected intravenously, via a tail vein, with 0.1 ml of a suspension of B16G/F10 melanoma cells (approximately 1×10^5 cells/mouse) on Day 0.
All dosing solutions were prepared on the first day of dosing (Day −2) and were kept at room temperature.
Mice: Female C57BL/6 mice were supplied and delivered by Charles River UK Limited. The animals were approximately 6-8 weeks of age on arrival. The animals were acclimatized for 29 days prior to the start of the study, and the body weights at the start of dosing were in the range 18-23 g. During the study, the animals were housed in groups of up to 6 in pediatric filter-topped cages with sawdust bedding (autoclaved for sterility). The room and cages were cleaned at regular intervals each week to maintain hygiene. The mice were fed an expanded rodent diet of RM1(E) SQC (batch number 3822; Special Diets Services, Witham, UK) ad libitum and allowed access to sterilized water (N.V. Nutricia, Zoetermeer, The Netherlands). For Groups 2, 3, 4 and 5, the drinking water also contained the appropriate level of test substance for the duration of the dosing period. […] During the acclimatization and study period the temperature range in the rooms was 18-22° C. and the humidity range was 44-79%.
Tumour challenge: B18F10 murine tumour cells (Shrayer D, Bogaars H. Hearing V. J. Maizel A. & Wanebo H. Further characterization of a clinically relevant model of melanoma metastasis and an effective vaccine. Cancer Immunology, Immunotherapy 1995: 40; 277-282) were harvested from sub-confluent cultures growing in vitro, using minimum trypsination. They were washed in sterile phosphate buffered saline (PBS) and the number of viable cells determined. Cells were resuspended in sterile PBS at a concentration of […]. The mice were intravenously injected, via a tail vein, with 0.1 ml of cell suspension (i.e. approximately 1×10^5 cells/mouse) on Day 0. The mice were examined daily for signs of laboured breathing or distress due to extensive metastatic disease. Mice were exposed to the appropriate test substance for 41 h 32 min prior to tumour cell injection (from Day −2 to Day 0). Following tumour cell implant, the test substances were removed, and animals in all groups received drinking water alone for the remainder of the study.
Sampling and analysis: The animals were terminated on Day 21 (21 days after injection of the tumour cells). Blood samples were taken from 3 mice from each group on the day of termination. Animals were anaesthetized with carbon dioxide and blood samples of maximal volume taken by cardiac puncture and collected in plain tubes. Samples were left to clot at room temperature for a minimum of 1 h prior to serum removal, Serum samples were stored at approximately −70° C. prior to analysis. Immediately after performing the bleeds, the spleens were removed from the 3 selected mice. The spleens from these mice were pooled in a petri dish with approximately 3-5 ml of RPMI 1640 tissue culture medium (batch number 3092202; Invitrogen, Paisley, UK) containing 0.52% penicillin/streptomycin (Pen/Strep; batch number 44K2412; Sigma Aldrich, Poole, UK) prior to splenocyte isolation. The spleens from each group were placed in a glass homogeniser with an additional 10-15 ml of medium and homogenised until opaque. The suspension was then placed in a 50 ml centrifuge tube. On occasions when there was significant cell debris, this was allowed to settle before removing the suspension and placing in a fresh tube. The homogenate was then centrifuged at approximately 200×‘g’ for 5 min at approximately 4° C.

[4] = target: rabbit gut mucosa α-D-glucosidase; experiment: Inhibition of rabbit gut mucosa α-D-glucosidase; assay type: biochemical
α-D-glucosidase [5] = experiment: Glycosidase inhibition: α-D-glucosidase, Bacillus; assay type: biochemical, Bacillus stearothermophilus; settings: 1 mg/ml
Procedure, shortened: as §3

## OC[C@@H]1[C@@H](O)[C@H](O)[C@H]2[C@H](O)[C@@H](O)CN21 [casuarine (8)]
B16-F10 tumour cells
  Metastatic morphology: Metastasis restricted to apical tip of lung
α-D-glucosidase [1]
  Ki: 217 µM
α-D-glucosidase [1]; 1 mg/ml, read-out: % inhibition, gluc (yeast)
  inhibition at 1000 µg/mL: 64%
[2]
  inhibition of rabbit small intestine sucrase: inhibited
β-D-glucosidase; 800 μM
  inhibition of almond β-D-glucosidase: not being inhibitory
β-D-glucosidase; 1 mg/ml
  % inhibition, glucosidase: 0%
α-D-galactosidase
  inhibition at 1000 µg/mL: 4%
α-D-glucosidase [3]
  inhibition at 1000 µg/mL: 76%
B16G/F10 melanoma cells; 0.03 μg/ml in drinking water before tumour cell injection
  Colony Count: 17.00 ± 6.97
B16G/F10 melanoma cells; 0.03 μg/ml in drinking water
  % Reduction: 76%
B16G/F10 melanoma cells; 3 μg/ml in drinking water before tumour cell injection
  Colony Count: 35.40 ± 7.47
B16G/F10 melanoma cells; 3 μg/ml in drinking water
  % Reduction: 49%
B16G/F10 melanoma cells; 0.3 mg/ml in drinking water before tumour cell injection
  Colony Count: 38.50 ± 11.49
B16G/F10 melanoma cells; 0.3 mg/ml in drinking water
  % Reduction: 45%
[4]
  IC50: 210 µM
α-D-glucosidase [5]
  % inhibition, gluc (Bacillus): 86%
